Consider 1 compound from EPA's ToxValDB 9.5.

Structures are written as SMILES.

The subject of this series is Neovison sp. The settings on record: repeat dose other; oral; Mink.

In turn, `[F-].[Na+]` [Sodium fluoride] yielded an LOAEL of 52.8 mg/kg-day and an NOAEL of 31.4 mg/kg-day.

As usually defined, the LOAEL is the lowest dose or exposure tested at which an adverse effect was seen. Usually NOAEL stands for the highest tested level that showed no adverse finding.
